Activity calls are given as the source filed them. The rule behind the calls is not given here.
Test system: CCRIS mutagenicity, Ames/micronucleus/aberration tests
Assay: CCRIS mutagenicity studies
[1] = Test System: AMES SALMONELLA TYPHIMURIUM, Strain/Indicator: TA98, Metabolic Activation: NONE, Method: STANDARD PLATE
[2] = Test System: AMES SALMONELLA TYPHIMURIUM, Strain/Indicator: TA100, Metabolic Activation: NONE, Method: STANDARD PLATE
[3] = Test System: AMES SALMONELLA TYPHIMURIUM, Strain/Indicator: TA98, Metabolic Activation: RAT, LIVER, S-9, AROCLOR 1254, Method: STANDARD PLATE
[4] = Test System: AMES SALMONELLA TYPHIMURIUM, Strain/Indicator: TA100, Metabolic Activation: RAT, LIVER, S-9, AROCLOR 1254, Method: STANDARD PLATE
[5] = Test System: AMES SALMONELLA TYPHIMURIUM, Strain/Indicator: TA1538, Metabolic Activation: NONE, Method: STANDARD PLATE

Question: How did the mutagenic call [1] turn out when `CC(C)c1cc(-c2ccccc2)ccc1N` was run?
Answer: The mutagenic call was “inactive; negative”.

Question: What about the mutagenic call (Test System: AMES SALMONELLA TYPHIMURIUM, Strain/Indicator: TA98, Metabolic Activation: RAT LIVER S-9, AROCLOR, Method: STANDARD PLATE) of the same compound?
Answer: Its mutagenic call is “active; positive”.

Question: What about the mutagenic call [2] of the same compound?
Answer: Its mutagenic call is “inactive; negative”.

Question: And the mutagenic call (Test System: AMES SALMONELLA TYPHIMURIUM, Strain/Indicator: TA100, Metabolic Activation: RAT LIVER S-9, AROCLOR, Method: STANDARD PLATE)?
Answer: Its mutagenic call is “active; positive”.

Question: For `CC1=C[C@H]2O[C@@H]3[C@H](O)C[C@](C)([C@@]2(CO)[C@H](O)C1=O)[C@]31CO1`, which mutagenic call (End Point: IN VITRO CHROMOSOMAL ABERRATIONS, Test System: CHINESE HAMSTER V79 CELLS, Metabolic Activation: NONE) is on record?
Answer: Its mutagenic call is “active; positive (structural changes)”.

Question: And the mutagenic call [1]?
Answer: Its mutagenic call is “inactive; negative”.

Question: What about the mutagenic call (Test System: AMES SALMONELLA TYPHIMURIUM, Strain/Indicator: TA98, Metabolic Activation: RAT LIVER S-9, DELOR 103, Method: STANDARD PLATE) of the same compound?
Answer: Its mutagenic call is “inactive; negative”.

Question: And the mutagenic call [3]?
Answer: The mutagenic call was “inactive; negative”.

Question: And the mutagenic call [2]?
Answer: The mutagenic call was “inactive; negative”.

Question: What about the mutagenic call (Test System: AMES SALMONELLA TYPHIMURIUM, Strain/Indicator: TA100, Metabolic Activation: RAT LIVER S-9, DELOR 103, Method: STANDARD PLATE) of the same compound?
Answer: Its mutagenic call is “inactive; negative”.

Question: What about the mutagenic call [4] of the same compound?
Answer: The mutagenic call was “inactive; negative”.

Question: `CC(C)=C[C@H]1[C@@H](C(=O)OCc2coc(Cc3ccccc3)c2)C1(C)C` was tested. Which mutagenic call [1] did it give?
Answer: Its mutagenic call is “inactive; negative”.

Question: And the mutagenic call [3]?
Answer: Its mutagenic call is “inactive; negative”.

Question: And the mutagenic call [4]?
Answer: Its mutagenic call is “inactive; negative”.

Question: And the mutagenic call (Test System: CHINESE HAMSTER V-79, Strain/Indicator: V-79/6-THIOGUANINE, Metabolic Activation: NONE, Method: STANDARD PLATE)?
Answer: Its mutagenic call is “inactive; negative”.

Question: What about the mutagenic call (Test System: CHINESE HAMSTER V-79, Strain/Indicator: V-79/6-THIOGUANINE, Metabolic Activation: RAT HEPATOCYTES, Method: STANDARD PLATE) of the same compound?
Answer: Its mutagenic call is “inactive; negative”.

Question: What about the mutagenic call (Test System: CHINESE HAMSTER V-79, Strain/Indicator: V-79/OUABAIN, Metabolic Activation: NONE, Method: STANDARD PLATE) of the same compound?
Answer: The mutagenic call was “inactive; negative”.

Question: What about the mutagenic call (Test System: CHINESE HAMSTER V-79, Strain/Indicator: V-79/OUABAIN, Metabolic Activation: RAT HEPATOCYTES, Method: STANDARD PLATE) of the same compound?
Answer: Its mutagenic call is “inactive; negative”.

Question: For `CN1CCN(c2ccc3nc(Cc4ccc5nc(-c6ccc(N(CCCl)CCCl)cc6)[nH]c5c4)[nH]c3c2)CC1`, which mutagenic call [1] is on record?
Answer: Its mutagenic call is “inactive; negative”.

Question: What about the mutagenic call [2] of the same compound?
Answer: Its mutagenic call is “inactive; negative”.

Question: What about the mutagenic call (Test System: AMES SALMONELLA TYPHIMURIUM, Strain/Indicator: TA102, Metabolic Activation: NONE, Method: STANDARD PLATE) of the same compound?
Answer: The mutagenic call was “inactive; negative”.

Question: What does the source list for `CN(C)CCC(c1ccccc1)c1ccccn1` (stereo not drawn)?
Answer: mutagenic call (Test System: AMES SALMONELLA TYPHIMURIUM, Strain/Indicator: TA98, Metabolic Activation: HAMSTER, LIVER, S-9, AROCLOR 1254 (10%), Method: PREINCUBATION): inactive; negative; mutagenic call (Test System: AMES SALMONELLA TYPHIMURIUM, Strain/Indicator: TA98, Metabolic Activation: NONE, Method: PREINCUBATION): inactive; negative; mutagenic call (Test System: AMES SALMONELLA TYPHIMURIUM, Strain/Indicator: TA98, Metabolic Activation: RAT, LIVER, S-9, AROCLOR 1254 (10%), Method: PREINCUBATION): inactive; negative; mutagenic call (Test System: AMES SALMONELLA TYPHIMURIUM, Strain/Indicator: TA100, Metabolic Activation: HAMSTER, LIVER, S-9, AROCLOR 1254 (10%), Method: PREINCUBATION): inactive; negative; mutagenic call (Test System: AMES SALMONELLA TYPHIMURIUM, Strain/Indicator: TA100, Metabolic Activation: NONE, Method: PREINCUBATION): inactive; negative; mutagenic call (Test System: AMES SALMONELLA TYPHIMURIUM, Strain/Indicator: TA100, Metabolic Activation: RAT, LIVER, S-9, AROCLOR 1254 (10%), Method: PREINCUBATION): inactive; negative; mutagenic call (Test System: AMES SALMONELLA TYPHIMURIUM, Strain/Indicator: TA1535, Metabolic Activation: HAMSTER, LIVER, S-9, AROCLOR 1254 (10%), Method: PREINCUBATION): inactive; negative; mutagenic call (Test System: AMES SALMONELLA TYPHIMURIUM, Strain/Indicator: TA1535, Metabolic Activation: NONE, Method: PREINCUBATION): inactive; negative; mutagenic call (Test System: AMES SALMONELLA TYPHIMURIUM, Strain/Indicator: TA1535, Metabolic Activation: RAT, LIVER, S-9, AROCLOR 1254 (10%), Method: PREINCUBATION): inactive; negative; mutagenic call (Test System: AMES SALMONELLA TYPHIMURIUM, Strain/Indicator: TA1537, Metabolic Activation: HAMSTER, LIVER, S-9, AROCLOR 1254 (10%), Method: PREINCUBATION): inactive; negative; mutagenic call (Test System: AMES SALMONELLA TYPHIMURIUM, Strain/Indicator: TA1537, Metabolic Activation: NONE, Method: PREINCUBATION): inactive; negative; mutagenic call (Test System: AMES SALMONELLA TYPHIMURIUM, Strain/Indicator: TA1537, Metabolic Activation: RAT, LIVER, S-9, AROCLOR 1254 (10%), Method: PREINCUBATION): inactive; negative

Question: How did the mutagenic call [1] turn out when `c1ccc2c(c1)cc1c3c2ccc2cccc(c23)C1` was run?
Answer: The mutagenic call was “inactive; negative”.

Question: What about the mutagenic call [3] of the same compound?
Answer: Its mutagenic call is “active; positive”.

Question: What about the mutagenic call [4] of the same compound?
Answer: The mutagenic call was “active; positive”.

Question: Which results are given for `O=Nc1c(-c2ccc([N+](=O)[O-])cc2)nc2sccn12`?
Answer: mutagenic call [1]: active; positive; mutagenic call [2]: active; positive; mutagenic call (Test System: AMES SALMONELLA TYPHIMURIUM, Strain/Indicator: TA1535, Metabolic Activation: NONE, Method: STANDARD PLATE): active; positive; mutagenic call (Test System: AMES SALMONELLA TYPHIMURIUM, Strain/Indicator: TA1537, Metabolic Activation: NONE, Method: STANDARD PLATE): active; positive; mutagenic call [5]: active; positive

Question: For `c1ccc2c(c1)ccc1c3ccccc3sc21`, which mutagenic call (Test System: AMES SALMONELLA TYPHIMURIUM, Strain/Indicator: TA100, Metabolic Activation: RAT, LIVER, S-9, AROCLOR 1254, Method: PREINCUBATION) is on record?
Answer: Its mutagenic call is “active; positive”.

Question: Which results are given for `O=Nc1ccc2c(c1)Cc1ccccc1-2`?
Answer: mutagenic call [1]: active; positive; mutagenic call [3]: active; positive; mutagenic call (Test System: AMES SALMONELLA TYPHIMURIUM, Strain/Indicator: TA98, Metabolic Activation: S-9, Method: STANDARD PLATE): active; positive; mutagenic call [2]: active; positive; mutagenic call (Test System: AMES SALMONELLA TYPHIMURIUM, Strain/Indicator: TA100, Metabolic Activation: S-9, Method: STANDARD PLATE): active; positive; mutagenic call [5]: active; positive

Reference: PubChem BioAssay AID1259407 (Chemical Carcinogenesis Research Information System (CCRIS), 2018)
